Values after ≈ are worked out from the molar mass of the structure shown.
Legend:
[1] = Solubility determination in water (HPLC-MS of saturated aqueous solutions); assay type: physicochemical; conditions: for Solubility: in water, ambient temperature, after 24 hours, not at equilibrium, supernatant by HPLC-MS, LOD 10 ng/mL
Protocol: The drug solubility of a sample of each of crystal Form I and Form II and two samples of Form III (obtained from drying of Form I and Form II) was evaluated in water using an HPLC-MS method (High performance liquid chromatography apparatus coupled to a mass spectrometer). Saturated aqueous solutions of the crystals were stirred and kept at ambient temperature for 24 hours. Solutions were centrifuged at 3600 rpm and an aliquot of supernatant was analyzed by HPLC-MS.

[2] = Thermal treatment (annealing/drying) of crystals, check for decomposition; assay type: physicochemical; conditions: heated at 60, 70, 80, 90 or 100° C. under air atmosphere; by 1H NMR, TGA, XRPD and solubility
Protocol: Crystal Form III was produced by annealing of either Form I or Form II crystals using a variety of temperatures and under various conditions such as air or inert atmosphere or under reduced pressure.
A sample of Compound 1 crystals of Form II (1 mg to 30 g) was dried for 6 hours in an oven at an isothermal 60° C. temperature under reduced pressure (1-4 Torr) using an Edwards RV8 pump (or in a vacuum oven). Sample was allowed to cool to room temperature and crystal Form III obtained was analyzed as described in Examples 3, 4, 5 and 6.
Annealing process was done above the temperature of solvent elimination. No degradation was observed up to 160° C. when crystals were annealed under nitrogen or under reduced pressure. Annealing was also shown to proceed slowly at temperatures as low as 50° C.
As an example, when temperatures of 60, 70 and 90° C. were used, subsequent DSC analysis gave melting points respectively of 185.5, 184.5 and 183.4° C., and a mass enthalpy respectively of 84.6, 66.8 and 64.9 J/g. A slight degradation (less than 4%) was observed (NMR and solubility) when a temperature of 120° C. was used (melting point of 174° C., mass enthalpy of 39.7 J/g) under air atmosphere.

| Structure (SMILES) | Relative (thermodynamic) stability judged from solubility ([1]; from Table 3 water solubility) | Solubility [1] | Decomposition on transformation to Form III [2] |
| --- | --- | --- | --- |
| CC(C)=CCC/C(C)=C/CC/C(C)=C/CN1C(=O)c2cccc(O)c2Nc2c(O)cc(O)cc21 [Form III] | clearly more stable than crystal Forms I and II |  |  |
| CC(C)=CCC/C(C)=C/CC/C(C)=C/CN1C(=O)c2cccc(O)c2Nc2c(O)cc(O)cc21 [Form III (annealed Form II)] |  | <LOD* |  |
| CC(C)=CCC/C(C)=C/CC/C(C)=C/CN1C(=O)c2cccc(O)c2Nc2c(O)cc(O)cc21 [Form I (MeOH/water)] |  | 6.59 µg/mL (≈ 14.2 µM) | without observable decomposition |
| CC(C)=CCC/C(C)=C/CC/C(C)=C/CN1C(=O)c2cccc(O)c2Nc2c(O)cc(O)cc21 [Form II (EtOH/water)] |  | 3.98 µg/mL (≈ 8.6 µM) | without observable decomposition |
| CC(C)=CCC/C(C)=C/CC/C(C)=C/CN1C(=O)c2cccc(O)c2Nc2c(O)cc(O)cc21 [Form III (annealed Form I)] |  | 0.65 µg/mL (≈ 1.41 µM) |  |
